Measured values reported in patent US10196386B2, “Compounds having muscarinic receptor antagonist and beta2 adrenergic receptor agonist activity” (priority 2016, dated 2019).

Experiments:
Human M3 receptor = biological target: T1, Human M3 receptor (Homo sapiens, UniProt P20309); test: biochemical; assay type: binding; conditions: read-out: M3 Range
T1 construct: purchased Perkin Elmer

Human β2 adrenoceptor = biological target: T2, Human β2 adrenoceptor (Homo sapiens, UniProt P07550); test: β2 adrenoceptor radioligand binding assay
T2 construct: purchased Perkin Elmer
Procedure: β2 Adrenoceptor Radioligand Binding Assay
Human β2 adrenoceptor membranes (7.5 ug/well) from Perkin Elmer were incubated with 0.3 nM 125-I Cyanopindolol with or without test compounds, or a saturating concentration of s-propranolol (2 μM) for the determination of non-specific binding. The assay was carried out in 96-well polypropylene plates in a volume of 200 ul. The assay buffer used was 25 mM HEPES, 0.5% BSA (w/v), 1 mM EDTA, 0.02% ascorbic acid (v/v), (pH 7.4). The final assay concentration of DMSO was 0.5% (v/v). The plates were sealed and incubated for 1 h at room temperature on an orbital shaker (slow speed). Membranes were harvested onto 96-well unifilter GF/C filter plates pre-treated with 0.5% polyethyleneimine (v/v), using a filter manifold, washed six times with 200 ul of wash buffer containing 10 mM HEPES and 500 mM NaCl. The plates were dried before addition of 50 μl of microscint-0, sealed then read in a Trilux Microbeta scintillation counter. IC50 values are determined from competition curves using a non-linear curve fitting program. Ki values were calculated from IC50 values by the Cheng and Prusoff equation.

T1 sequence (P20309 whole entry): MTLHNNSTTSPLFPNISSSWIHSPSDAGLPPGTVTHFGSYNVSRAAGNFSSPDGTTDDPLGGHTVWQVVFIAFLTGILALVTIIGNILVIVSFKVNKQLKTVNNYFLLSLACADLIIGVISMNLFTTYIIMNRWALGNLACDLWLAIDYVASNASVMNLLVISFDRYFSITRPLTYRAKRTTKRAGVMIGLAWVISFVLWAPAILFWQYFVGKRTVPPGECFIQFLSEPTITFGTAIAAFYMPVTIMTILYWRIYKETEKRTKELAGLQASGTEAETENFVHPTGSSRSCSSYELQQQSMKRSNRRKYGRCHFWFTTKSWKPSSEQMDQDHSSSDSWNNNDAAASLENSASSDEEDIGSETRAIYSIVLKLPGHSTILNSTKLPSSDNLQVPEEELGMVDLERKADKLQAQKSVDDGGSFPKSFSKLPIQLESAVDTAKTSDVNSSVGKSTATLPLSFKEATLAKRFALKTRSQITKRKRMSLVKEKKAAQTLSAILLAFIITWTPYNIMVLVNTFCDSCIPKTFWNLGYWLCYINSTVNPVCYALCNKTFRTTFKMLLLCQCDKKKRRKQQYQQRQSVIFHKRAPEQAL
T2 sequence (P07550 whole entry): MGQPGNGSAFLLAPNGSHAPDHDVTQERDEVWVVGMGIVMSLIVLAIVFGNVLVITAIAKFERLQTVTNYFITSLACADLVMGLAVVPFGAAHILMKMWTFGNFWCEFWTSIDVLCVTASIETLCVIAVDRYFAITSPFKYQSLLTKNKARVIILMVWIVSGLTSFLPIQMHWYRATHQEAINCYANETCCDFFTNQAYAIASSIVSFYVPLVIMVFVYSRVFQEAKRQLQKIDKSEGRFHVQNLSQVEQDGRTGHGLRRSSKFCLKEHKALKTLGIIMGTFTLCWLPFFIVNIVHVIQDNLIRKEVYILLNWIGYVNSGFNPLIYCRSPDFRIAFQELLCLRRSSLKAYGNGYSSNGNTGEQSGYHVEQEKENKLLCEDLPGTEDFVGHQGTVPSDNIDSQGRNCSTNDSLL

| SMILES | IC50 (Human M3 receptor) [nM] | IC50 (Human β2 adrenoceptor) [nM] |
| --- | --- | --- |
| O=C(NCc1ccc(-c2cccc([C@](O)(C(=O)OCC3CCN(Cc4ccccc4)CC3)c3ccccc3)c2)s1)c1cccc(CNC[C@H](O)c2ccc(O)c3[nH]c(=O)ccc23)c1 [Compound 1N, (1-Benzylpiperidin-4-yl)methyl (S)-2-hydroxy-2-(3-(5-((3-((((R)-2-hydroxy-2-(8-hydroxy-2-oxo-1,2-dihydroquinolin-5-yl)ethyl)amino)methyl)-benzamido)methyl)thiophen-2-yl)phenyl)-2-phenylacetate] | 0.3 to 3 | 0.3 to 3 |
| Cc1cc(C(=O)NCc2ccc(-c3cccc([C@](O)(C(=O)OCC4CCN(Cc5ccccc5)CC4)c4ccccc4)c3)s2)c(F)cc1CNC[C@H](O)c1ccc(O)c2[nH]c(=O)ccc12 [Compound 1O, (1-Benzylpiperidin-4-yl)methyl (S)-2-(3-(5-((2-fluoro-4-((((R)-2-hydroxy-2-(8-hydroxy-2-oxo-1,2-dihydroquinolin-5-yl)ethyl)amino)methyl)-5-methylbenzamido)methyl)thiophen-2-yl)phenyl)-2-hydroxy-2-phenylacetate] | > 3 | < 0.3 |
| O=C(Cc1ccc(CNC[C@H](O)c2ccc(O)c3[nH]c(=O)ccc23)cc1)NCc1ccc(-c2cccc([C@](O)(C(=O)OCC3CCN(Cc4ccccc4)CC3)c3ccccc3)c2)s1 [Compound 1P, (1-Benzylpiperidin-4-yl)methyl (S)-2-hydroxy-2-(3-(5-((2-(4-((((R)-2-hydroxy-2-(8-hydroxy-2-oxo-1,2-dihydroquinolin-5-yl)ethyl)amino)methyl)-phenyl)acetamido)methyl)thiophen-2-yl)phenyl)-2-phenylacetate] | 0.3 to 3 | 0.3 to 3 |
| O=C(NCc1ccc(-c2cccc([C@](O)(C(=O)OCC3CCN(Cc4ccccc4)CC3)c3ccccc3)c2)s1)c1ccc(CNC[C@H](O)c2ccc(O)c3[nH]c(=O)ccc23)cn1 [Compound 1Q, (1-Benzylpiperidin-4-yl)methyl (S)-2-hydroxy-2-(3-(5-((5-((((R)-2-hydroxy-2-(8-hydroxy-2-oxo-1,2-dihydroquinolin-5-yl)ethyl)amino)methyl)-picolinamido)methyl)thiophen-2-yl)phenyl)-2-phenylacetate] | 0.3 to 3 | < 0.3 |
| O=C(NCc1ccc(-c2cccc([C@](O)(C(=O)OCC3CCN(Cc4ccccc4)CC3)c3ccccc3)c2)s1)c1ccc(CNC[C@H](O)c2ccc(O)c3[nH]c(=O)ccc23)c(Cl)c1 [Compound 1R, (1-Benzylpiperidin-4-yl)methyl (S)-2-(3-(5-((3-chloro-4-((((R)-2-hydroxy-2-(8-hydroxy-2-oxo-1,2-dihydroquinolin-5-yl)ethyl)amino)methyl)-benzamido)methyl)thiophen-2-yl)phenyl)-2-hydroxy-2-phenylacetate] | > 3 | < 0.3 |
| Cc1cc(C(=O)NCc2ccc(-c3cccc([C@](O)(C(=O)OCC4CCN(Cc5ccccc5)CC4)c4ccccc4)c3)s2)ccc1CNC[C@H](O)c1ccc(O)c2[nH]c(=O)ccc12 [Compound 1S, (1-Benzylpiperidin-4-yl)methyl (S)-2-hydroxy-2-(3-(5-((4-((((R)-2-hydroxy-2-(8-hydroxy-2-oxo-1,2-dihydroquinolin-5-yl)ethyl)amino)methyl)-3-methylbenzamido)methyl)thiophen-2-yl)phenyl)-2-phenylacetate] | 0.3 to 3 | < 0.3 |
| O=C(NCc1ccc(-c2cccc([C@](O)(C(=O)OCC3CCN(Cc4ccccc4)CC3)c3ccccc3)c2)s1)c1ccc(CNC[C@H](O)c2ccc(O)c3[nH]c(=O)ccc23)s1 [Compound 1T, (1-Benzylpiperidin-4-yl)methyl (S)-2-hydroxy-2-(3-(5-((5-((((R)-2-hydroxy-2-(8-hydroxy-2-oxo-1,2-dihydroquinolin-5-yl)ethyl)amino)methyl)thiophene-2-carboxamido)methyl)thiophen-2-yl)phenyl)-2-phenylacetate] | 0.3 to 3 | 0.3 to 3 |
| O=C(NCc1ccc(-c2cccc([C@](O)(C(=O)OCC3CCN(Cc4ccccc4)CC3)c3ccccc3)c2)s1)c1cc(F)c(CNC[C@H](O)c2ccc(O)c3[nH]c(=O)ccc23)cc1F [Compound 1U, (1-Benzylpiperidin-4-yl)methyl (S)-2-(3-(5-((2,5-difluoro-4-((((R)-2-hydroxy-2-(8-hydroxy-2-oxo-1,2-dihydroquinolin-5-yl)ethyl)amino)methyl)-benzamido)methyl)thiophen-2-yl)phenyl)-2-hydroxy-2-phenylacetate] | 0.3 to 3 | < 0.3 |
| O=C(NCc1ccc(-c2cccc([C@](O)(C(=O)OCC3CCN(Cc4ccccc4)CC3)c3ccccc3)c2)s1)c1ccc(CNC[C@H](O)c2ccc(O)c3[nH]c(=O)ccc23)c(F)c1F [Compound 1V, (1-Benzylpiperidin-4-yl)methyl (S)-2-(3-(5-((2,3-difluoro-4-((((R)-2-hydroxy-2-(8-hydroxy-2-oxo-1,2-dihydroquinolin-5-yl)ethyl)amino)methyl)-benzamido)methyl)thiophen-2-yl)phenyl)-2-hydroxy-2-phenylacetate] | 0.3 to 3 | < 0.3 |
| O=C(NCc1ccc(-c2cccc([C@](O)(C(=O)OCC3CCN(Cc4ccccc4)CC3)c3ccccc3)c2)s1)c1c(F)cc(CNC[C@H](O)c2ccc(O)c3[nH]c(=O)ccc23)cc1Cl [Compound 1W, (1-Benzylpiperidin-4-yl)methyl (S)-2-(3-(5-((2-chloro-6-fluoro-4-((((R)-2-hydroxy-2-(8-hydroxy-2-oxo-1,2-dihydroquinolin-5-yl)ethyl)amino)methyl)-benzamido)methyl)thiophen-2-yl)phenyl)-2-hydroxy-2-phenylacetate] | 0.3 to 3 | < 0.3 |
| COc1cc(CNC[C@H](O)c2ccc(O)c3[nH]c(=O)ccc23)cc(F)c1C(=O)NCc1ccc(-c2cccc([C@](O)(C(=O)OCC3CCN(Cc4ccccc4)CC3)c3ccccc3)c2)s1 [Compound 1X, (1-Benzylpiperidin-4-yl)methyl (S)-2-(3-(5-((2-fluoro-4-((((R)-2-hydroxy-2-(8-hydroxy-2-oxo-1,2-dihydroquinolin-5-yl)ethyl)amino)methyl)-6-methoxybenzamido)methyl)thiophen-2-yl)phenyl)-2-hydroxy-2-phenylacetate] | 0.3 to 3 | < 0.3 |
| COc1ccc(CN2CCC(COC(=O)[C@](O)(c3ccccc3)c3cccc(-c4ccc(CNC(=O)c5ccc(CNC[C@H](O)c6ccc(O)c7[nH]c(=O)ccc67)cc5)s4)c3)CC2)cc1 [Compound 2A, (1-(4-Methoxybenzyl)piperidin-4-yl)methyl (S)-2-hydroxy-2-(3-(5-((4-((((R)-2-hydroxy-2-(8-hydroxy-2-oxo-1,2-dihydroquinolin-5-yl)ethyl)amino)-methyl)benzamido)methyl)thiophen-2-yl)phenyl)-2-phenylacetate] | 0.3 to 3 | < 0.3 |
| CN1CCC(COC(=O)[C@](O)(c2ccccc2)c2cccc(-c3ccc(CNC(=O)c4ccc(CNC[C@H](O)c5ccc(O)c6[nH]c(=O)ccc56)cc4)s3)c2)CC1 [Compound 2B, (1-Methylpiperidin-4-yl)methyl (S)-2-hydroxy-2-(3-(5-((4-((((R)-2-hydroxy-2-(8-hydroxy-2-oxo-1,2-dihydroquinolin-5-yl)ethyl)amino)methyl)-benzamido)methyl)thiophen-2-yl)phenyl)-2-phenylacetate] | 0.3 to 3 | < 0.3 |
| O=C(NCc1ccc(-c2cccc([C@](O)(C(=O)OC[C@@H]3[C@H]4CN(Cc5ccccc5)C[C@@H]34)c3ccccc3)c2)s1)c1ccc(CNC[C@H](O)c2ccc(O)c3[nH]c(=O)ccc23)cc1 [Compound 2D, ((1R,5S,6r)-3-Benzyl-3-azabicyclo[3.1.0]hexan-6-yl)methyl (S)-2-hydroxy-2-(3-(5-((4-((((R)-2-hydroxy-2-(8-hydroxy-2-oxo-1,2-dihydroquinolin-5-yl)ethyl)amino)methyl)benzamido)methyl)thiophen-2-yl)phenyl)-2-phenylacetate] | 0.3 to 3 | 0.3 to 3 |
| COc1cccc(CN2CCC(COC(=O)[C@](O)(c3ccccc3)c3cccc(-c4ccc(CNC(=O)c5ccc(CNC[C@H](O)c6ccc(O)c7[nH]c(=O)ccc67)cc5)s4)c3)CC2)c1 [Compound 2E, (1-(3-Methoxybenzyl)piperidin-4-yl)methyl (S)-2-hydroxy-2-(3-(5-((4-((((R)-2-hydroxy-2-(8-hydroxy-2-oxo-1,2-dihydroquinolin-5-yl)ethyl)amino)-methyl)benzamido)methyl)thiophen-2-yl)phenyl)-2-phenylacetate] | > 3 | 0.3 to 3 |
| C[C@@H](OC(=O)[C@](O)(c1ccccc1)c1cccc(-c2ccc(CNC(=O)c3ccc(CNC[C@H](O)c4ccc(O)c5[nH]c(=O)ccc45)cc3)s2)c1)C1CCN(Cc2ccccc2)CC1 [Compound 2G, (R)-1-(1-Benzylpiperidin-4-yl)ethyl (S)-2-hydroxy-2-(3-(5-((4-((((R)-2-hydroxy-2-(8-hydroxy-2-oxo-1,2-dihydroquinolin-5-yl)ethyl)amino)-methyl)benzamido)methyl)thiophen-2-yl)phenyl)-2-phenylacetate] | 0.3 to 3 | < 0.3 |
